Test results published in patent US9028856B2, “Synergistic pesticide compositions” (priority 2008, dated 2015).

Legend:
[1] = type: physicochemical; conditions: classified from Log P
Source text: As used herein, a “partition coefficient” is defined as the ratio of concentrations of an un-ionized compound between solutions of water and octanol. To measure the partition coefficient of ionizable solutes, the pH of the aqueous phase is adjusted such that the predominant form of the compound is un-ionized. The logarithm of the ratio of the concentrations of the un-ionized solute in the solvents is referred to herein as log P or log K ow.
As noted herein, the octanol-water partition coefficient may be used to identify the cuticular penetration of a particular active ingredient. One factor in the relative speed through which any insecticide acts is the insecticide's ability to cross the insect cuticle. A determining factor for cuticle penetration is Log K ow, also known as Log P. Log K ow (Log P) is the octanol-water partition coefficient for a neutral molecule. Log P is used hereinfurther, but, as noted above, the term is synonymous with Log K ow. As previously noted, the cuticular penetration of any particular active ingredient as against a plant cuticle is not indicative of that same active ingredient's ability to penetrate an insect cuticle.
The cuticular penetration of a compound is classified as “INTERMEDIATE” when the Log P value is between about 2.0 and about 4.0.

Aedes aegypti mosquito = assay: USDA Petri Dish Method, 3 min exposure to treated glazed tile; type: in vivo; conditions: Aedes aegypti, glazed tile, 3 min exposure
Summary of the method: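 USDA Petri Dish screen: groups of twenty female Aedes aegypti (4-6 days old) held 3 minutes on dried acetone-based treatments (with/without adjuvant), then transferred to untreated card. Replicated three or more times; knockdown followed over time, mortality recorded 24 hours post-exposure with sucrose-soaked cotton available.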

[2] = octanol-water partition coefficient (Log K ow), Table 1; cited from earlier work
[3] = tested on: Argentine ant, Linepithema humile; assay: Knockdown/mortality of ant workers under continuous exposure on treated glazed tile; conditions: Argentine ant, treated glazed tile
Summary of the method: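 0.5% AI imidacloprid in acetone, alone or with 0.1, 1.0 or 5.0% additive (benzenepropanoic acid, oleic acid, methyl oleate, methyl linoleate, methyl palmitate or BHA), 1 ml dried overnight on glazed tile (~161 cm^2). Ten workers confined under continuous exposure, water from 3 h; knockdown/mortality scored at intervals and 24 h; ≥3 replicates.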

Row | Compound | Likelihood of Direct Insect Cuticular Penetration [1] | toxicity / efficacy of the substance alone (summary in words) (Aedes aegypti mosquito) | Log P [2] | toxicity / efficacy of the substance alone (summary in words) [3]
1 | CC(C)=CC1C(C(=O)OCc2coc(Cc3ccccc3)c2)C1(C)C (stereo not shown) [resmethrin] | Fast (classified as “FAST” when it has a Log P value of about >4.0) | did not provide mosquito knockdown | 5.4 | –
2 | CNC(=O)Oc1cccc2ccccc12 [carbaryl] | Intermediate (classified as “INTERMEDIATE” when the Log P value is between about 2.0 and about 4.0) | – | 2.8 | –
3 | CC1(C)C(C=C(Cl)Cl)C1C(=O)OC(C#N)c1ccc(F)c(Oc2ccccc2)c1 (stereo not drawn) [β-cyfluthrin, reference compound] | Fast (classified as “FAST” when it has a Log P value of about >4.0) | 100% knockdown, or nearly 100% knockdown even in the absence of the adjuvant | 5.9 | extremely effective at killing the ants
4 | CCNS(=O)(=O)C(F)(F)C(F)(F)C(F)(F)C(F)(F)C(F)(F)C(F)(F)C(F)(F)C(F)(F)F [sulfluramid] | Fast (classified as “FAST” when it has a Log P value of about >4.0) | – | >6.8 | –
5 | CCc1nn(C)c(C(=O)NCc2ccc(C(C)(C)C)cc2)c1Cl [tebufenpyrad] | Fast (classified as “FAST” when it has a Log P value of about >4.0) | – | 4.9 | –
6 | CCC(C)(C)C(=O)OC1=C(c2ccc(Cl)cc2Cl)C(=O)OC12CCCCC2 [spirodiclofen] | Fast (classified as “FAST” when it has a Log P value of about >4.0) | – | 5.8 | –
7 | Cc1c(COC(=O)[C@@H]2[C@H](/C=C(\Cl)C(F)(F)F)C2(C)C)cccc1-c1ccccc1 (racemic) [bifenthrin] | Fast (classified as “FAST” when it has a Log P value of about >4.0) | – | 6.0 | –
8 | spinosad | Intermediate-Fast | – | 2.8-5.2 | –
9 | C/C(=N\C#N)N(C)Cc1ccc(Cl)nc1 [acetamiprid] | Slow (classified as “SLOW” when the compound has a Log P value of about <2.0) | – | 0.8 | –
10 | CS/C(C)=N\OC(=O)N(C)SN(C)C(=O)O/N=C(\C)SC [thiodicarb] | Slow (classified as “SLOW” when the compound has a Log P value of about <2.0) | – | 1.6 | –
11 | CC1(C)CNC(=NN=C(/C=C/c2ccc(C(F)(F)F)cc2)/C=C/c2ccc(C(F)(F)F)cc2)NC1 [hydramethylnon] | Intermediate (classified as “INTERMEDIATE” when the Log P value is between about 2.0 and about 4.0) | – | 2.3 | –
